{"source": "patent US7361263B2", "about": "“Water treatment apparatus and method” (Sanyo Electric Co., Ltd., priority 2002, dated 2008)", "key": {"[1]": {"test_system": "Escherichia coli (coliform bacillus) NIHJ JC-2", "test": "Test of antibacterial activity of epirubicin hydrochloride (MIC, small amount broth dilution)", "format": "cell-based", "details": "read-out: minimum inhibitory concentration (MIC)", "method": "(§1) The pharmaceutical stock solution disclosed in the standard method was replaced with the samples of the present example for testing. As the culture medium for measuring sensitivity, Cation Supplemented Mueller-Hinton Broth: CSMHB (obtained from EIKEN CHEMICAL CO., LTD.) was employed. This CSMHB was poured 90 μl each into a U-shaped bottom 96-well microplate. Samples taken 0, 2, 4 and 6 hours from initiation of electrolysis described in the above 2 were prepared. A diluted solution of respective samples was prepared in accordance with the standard method. […] The bacilli used in the present example were identical to the two types of bacillus employed in Example 1, i.e. Staphylococcus aureus (staphylococcus bacteria) FDA […] and Escherichia coli (coliform bacillus) NIHJ JC-2. […] This solution was inoculated approximately 0.005 ml in each well of the plate set forth above within 15 minutes from preparation of the solution including bacillus. A medium not containing the agent was poured into 1-2-wells as the control of the development of bacillus. Cultivation was conducted for 18-24 hours at 35° C."}, "[2]": {"test_system": "Staphylococcus aureus (staphylococcus bacteria) FDA 209P", "test": "Test of antibacterial activity of epirubicin hydrochloride (MIC, small amount broth dilution)", "format": "cell-based", "details": "for MIC: Staphylococcus aureus, FDA209P, read-out: minimum inhibitory concentration (MIC)", "method": "as §1"}, "[3]": {"test": "Cytotoxicity (CC50) test, WST-8", "format": "cell-based, human", "details": "human; electrolyzing time 0 hours; Molt-4 cells, cultured three days", "description": "For the measurement of the number of cells, tetrazolium salt WST-8 (Cell Counting Kit-8 available as a kit) was employed as the chromophone. The basic principle of the cytotoxicity (CC50) test is set forth below. WST-8 is reduced by intracellular dehydrogenation enzyme to produce soluble formazan. Since the number of cells and the amount of generated formazan is linearly proportional, the number of cells can be readily measured by directly measuring the absorbancy of formazan at 450 nm. The specific procedure for measurement is set forth below. 180 μl of a culture medium was introduced into each of the wells in the range of rows A-D and columns 3-10 in a 96-well flat microtiter plate for diluting the agent. 240 μl of the sample taken at 0 hours from initiation of electrolysis was added to the well of row A, column 2 in the microtiter plate. 240 μl of the sample taken 2 hours from initiation of electrolysis was added to the well of row B, column 2. 240 μl of the sample taken 4 hours from initiation of electrolysis was added to the well of row C, column 2. 240 μl of the sample taken 6 hours from initiation of electrolysis was added to the well of row D, column 2. To produce respective columns of sample dilutions, samples of 60 μl each was taken from the above-described samples of 240 μl. These samples of 60 μl were sequentially added to the right side well to be sufficiently pipeted. This was conducted up to column 10. Two of U-bottom 96-well microtiter plates for cultivation were prepared, and 200 μl of PBS was applied to all the side-most wells. 100 μl of culture medium was introduced into each of the wells of rows B-G, columns 2-9. 150 μl of culture medium was introduced into the wells of columns 10 and 11. Then, 50 μl of cell suspension solution prepared to 5×10^6 cell/ml was introduced into each of the wells of rows B-G, columns 2-9 and column 11. The wells of column 10 were absent of cells. […] Then, the O.D. was measured at 450 nm and 620 nm using a microplate reader."}, "[4]": {"test": "Mutagenicity test (umu-test)", "format": "cell-based"}, "[5]": {"test_system": "Escherichia coli (coliform bacillus) NIHJ JC-2", "test": "Sterilizing activity test of glutaral (MIC, small amount broth dilution, 60 minutes contact)", "format": "cell-based", "method": "(§2) The sterilizing activity of glutaral was evaluated based on MIC measurement by a small amount broth dilution method, which is the standard method of the Japanese Society of Chemotherapy. In the present example, the presence of bacillus by the bacterial number of survivals after a solution including bacillus was brought into contact with glutaral for a predetermined period of time (60 minutes) taking into account the fact that sterilization is neutralized when glutaral is mixed with the culture medium. The pharmaceutical stock solution disclosed in the standard method was replaced with the sample of the present example for testing. As the culture medium for measuring sensitivity, Cation Supplemented Mueller-Hinton Broth: CSMHB (obtained from EIKEN CHEMICAL CO., LTD.) was used. This CSMHB was dividedly-poured 90 μl each into a U-shaped bottom 96-well microplate. This is called Plate 1. The samples taken 0, 2, 4 and 6 hours from initiation of electrolysis described in the above 1. were prepared. In accordance with the method of [Example 1] recited in the additional rule of the standard method, a diluted solution of sterilized phosphate buffer (PBS) was produced for each sample. In the present example, the test was carried out at 1⁄2 the scale cited in the standard method. The containing amount of glutaral in the first tube was approximately 1000 μg/ml titer. The PBS dilution was dividedly-poured 0.1 ml each into another U-shaped microplate. This is called plate 2. In the present example, Staphylococcus aureus (staphylococcus bacteria) […] and Escherichia coli (coliform bacillus) NIHJ JC-2 strain were employed as the bacilli for testing sensitivity. The bacillus to be tested on an agar media cultured overnight was suspended to 0.5 Mc Farland (approximately 10^8 CFU/ml) and diluted by ten times (approximately 10^7 CFU/ml) with sterilized physiologic saline as the solution including bacillus for inoculation. The water to be treated and the solution including bacillus were inoculated and mixed 0.01 ml each in each well of Plate 1 within 15 minutes from preparation of the solution including bacillus. In Plate 1, a culture medium not containing the agent was poured into 1-2 wells as the control of growth of bacillus. At an elapse of 60 minutes from the mixing, 10 μl of the solution of plate 2 was each introduced into the same well of Plate 1. Then, cultivation was conducted for 18 to 24 hours at 35° C. The criteria of Positive Growth (+) and Inhibited Growth (-) after cultivation was determined as set forth below. Positive growth (+) was accepted when cloudiness was identified by the naked eye or a precipitate of at least 1 mm in diameter, or when two or more masses of precipitate, even though the diameter thereof is below 1 mm, was identified. Inhibited growth (-) was accepted when cloudiness by the naked eye was not identified, or when only one precipitate with a diameter below 1 mm was identified."}, "[6]": {"test_system": "Staphylococcus aureus (staphylococcus bacteria) 209P", "test": "Sterilizing activity test of glutaral (MIC, small amount broth dilution, 60 minutes contact)", "format": "cell-based", "method": "as §2"}, "[7]": {"test": "Gas chromatograph evaluation of decomposition of glutaral by electrolysis", "format": "physicochemical", "details": "six hours from initiation of electrolysis"}, "[8]": {"details": "6 hours from initiation of electrolysis, calculated"}, "[9]": {"details": "electrolysis for 6 hours or more, from formula value"}}, "note": "Structures can show the parent of a compound that is named as a salt. Where two headings read alike, the source gives them in different places."}
{"smiles": "COc1cccc2c1C(=O)c1c(O)c3c(c(O)c1C2=O)C[C@@](O)(C(=O)CO)C[C@@H]3O[C@H]1C[C@H](N)[C@@H](O)[C@H](C)O1", "note": "[epirubicin hydrochloride]", "values": [{"measurement": "MIC", "setting": "[1]; NIHJJC2, electrolyzing time 0 hours", "result": "> 200", "unit": "µg/mL"}, {"measurement": "MIC", "setting": "[1]; NIHJJC2, electrolyzing time 2 hours", "result": "> 200", "unit": "µg/mL"}, {"measurement": "MIC", "setting": "[1]; NIHJJC2, electrolyzing time 4 hours", "result": "> 200", "unit": "µg/mL"}, {"measurement": "MIC", "setting": "[1]; NIHJJC2, electrolyzing time 6 hours", "result": "> 200", "unit": "µg/mL"}, {"measurement": "MIC", "setting": "[2]; electrolyzing time 0 hours", "result": 1.56, "unit": "µg/mL"}, {"measurement": "MIC", "setting": "[2]; electrolyzing time 2 hours", "result": 25, "unit": "µg/mL"}, {"measurement": "MIC", "setting": "[2]; electrolyzing time 4 hours", "result": "> 200", "unit": "µg/mL"}, {"measurement": "MIC", "setting": "[2]; electrolyzing time 6 hours", "result": "> 200", "unit": "µg/mL"}, {"measurement": "relative MIC value (MIC at 0 hour set as 1)", "setting": "[2]; electrolyzing time 0 hours", "result": 1}, {"measurement": "relative MIC value (MIC at 0 hour set as 1)", "setting": "[2]; electrolyzing time 2 hours", "result": "1/16"}, {"measurement": "CC50 at 3 days", "setting": "[3]", "result": 0.066, "unit": "µg/mL"}, {"measurement": "concentration of the tube showing the mutagenicity induction level (fifth tube)", "setting": "[4]; 0 hours from initiation of electrolysis", "result": 24.7, "unit": "μ/ml"}, {"measurement": "umu-test absorbancy of the first tube (O.D.620 nm)", "setting": "[4]; at all of 0, 2, 4 and 6 hours from initiation of electrolysis", "result": "exceeded 0.2"}, {"measurement": "umu-test result (positivity / negativity)", "setting": "[4]; at all of 0, 2, 4 and 6 hours from initiation of electrolysis, cut off value approximately 0.18", "result": "positivity"}, {"measurement": "mutagenicity after the electrolytic process relative to before", "setting": "[4]; lines diluted by three times, 1/3^4", "result": "1/81"}]}
{"smiles": "O=CCCCC=O", "note": "[glutaral]", "values": [{"measurement": "minimum inhibitor concentration obtained from approximation formula 2", "setting": "[5]; [8]", "result": 4600, "unit": "µg/mL"}, {"measurement": "minimum inhibitor concentration relative to before electrolysis", "setting": "[5]; [9]", "result": "approximately 1/37"}, {"measurement": "minimum inhibitor concentration", "setting": "[5]; electrolyzing time 0 hours", "result": 31.25, "unit": "µg/mL"}, {"measurement": "relative value of the minimum inhibitor concentration (when preceding electrolysis is 1)", "setting": "[5]; electrolyzing time 0 hours", "result": 1}, {"measurement": "minimum inhibitor concentration", "setting": "[5]; electrolyzing time 2 hours", "result": 125, "unit": "µg/mL"}, {"measurement": "relative value of the minimum inhibitor concentration (when preceding electrolysis is 1)", "setting": "[5]; electrolyzing time 2 hours", "result": "¼"}, {"measurement": "minimum inhibitor concentration", "setting": "[5]; electrolyzing time 4 hours", "result": ">1000", "unit": "µg/mL"}, {"measurement": "relative value of the minimum inhibitor concentration (when preceding electrolysis is 1)", "setting": "[5]; electrolyzing time 4 hours", "result": "< 1/32"}, {"measurement": "minimum inhibitor concentration", "setting": "[5]; electrolyzing time 6 hours", "result": ">1000", "unit": "µg/mL"}, {"measurement": "relative value of the minimum inhibitor concentration (when preceding electrolysis is 1)", "setting": "[5]; electrolyzing time 6 hours", "result": "< 1/32"}, {"measurement": "minimum inhibitor concentration obtained from approximation formula 1", "setting": "[6]; [8]", "result": 1150, "unit": "µg/mL"}, {"measurement": "minimum inhibitor concentration relative to before electrolysis", "setting": "[6]; [9]", "result": "approximately 1/18"}, {"measurement": "minimum inhibitor concentration", "setting": "[6]; electrolyzing time 0 hours", "result": 62.5, "unit": "µg/mL"}, {"measurement": "relative value of the minimum inhibitor concentration (when preceding electrolysis is 1)", "setting": "[6]; electrolyzing time 0 hours", "result": 1}, {"measurement": "minimum inhibitor concentration", "setting": "[6]; electrolyzing time 2 hours", "result": 125, "unit": "µg/mL"}, {"measurement": "relative value of the minimum inhibitor concentration (when preceding electrolysis is 1)", "setting": "[6]; electrolyzing time 2 hours", "result": "½"}, {"measurement": "minimum inhibitor concentration", "setting": "[6]; electrolyzing time 4 hours", "result": 500, "unit": "µg/mL"}, {"measurement": "relative value of the minimum inhibitor concentration (when preceding electrolysis is 1)", "setting": "[6]; electrolyzing time 4 hours", "result": "⅛"}, {"measurement": "minimum inhibitor concentration", "setting": "[6]; electrolyzing time 6 hours", "result": ">1000", "unit": "µg/mL"}, {"measurement": "relative value of the minimum inhibitor concentration (when preceding electrolysis is 1)", "setting": "[6]; electrolyzing time 6 hours", "result": "< 1/16"}, {"measurement": "GC peak area (RT 3.14 minutes) relative to sample of 0 hours", "setting": "[7]", "result": "1/25"}]}
